Like-named read-outs stand apart in the source and are kept apart here. Marks after values point to notes of the source that are not given here.
Assays:
[1] = PC content of red wine before and after in vitro simulated gastrointestinal digestion (HPLC); assay type: in vitro ADME; conditions: for Increase in content after digestion: after digestion vs undigested
Description: The digestion procedure was carried out by adapting the method of Brodkorb et al. and Gómez et al.. […] One milliliter (50 units/mL) of porcine amylase was prepared in a 15 mM Na₃PO₄ buffer solution (pH adjusted to 6.8) containing 1.5 mM CaCl2, and it was added to the red wine solution. After 5 min, 4.5 mL of 0.12 M HCl was added to the mixture to adjust the pH to 2.4. One milliliter of porcine pepsin (0.02 mg/L) was dissolved in a 20 mM HCl solution. The mixture was then maintained at 37 °C for 120 min. The digestion mixture was then centrifuged at 8000× g for 15 min to obtain samples from the gastric digestion phase. […] The mixture was incubated at pH 6.5 at 37 °C for 3 h before being centrifuged. The extracts of the intestinal phase were the supernatants. The same operation was done three times, and each sample was stored in a refrigerator (−20 °C) immediately for further analysis.
The Pati method was adopted, with slight modifications, to measure the content of the PCs. The Agilent 1100 series HPLC instrument was used; it was equipped with a degasser, quaternary pump solvent delivery, a DAD system, and a single quadrupole mass detector coupled with an electrospray ionization LC–MS interface. Briefly, th samples were injected into a Zorbax SB C18 reversed-phase column (5 µm,150 × 2.1 mm, Agilent Technologies, Santa Clara, CA, USA) using an autosampler after filtering through 0.45 µm cellulose acetate syringe filters. The column temperature was kept at 30 °C, the injection volume was 10 µL, and the flow rate was 0.3 mL/min. The eluents were water and formic acid in a 99:1 (v/v) (A) ratio and 100% acetonitrile (B). […] The MS configuration was as follows: ESI, negative ion mode, nebulizer pressure of 30 psi, a dry gas flow rate of 10 mL/min, dry gas temperature of 350 °C, and a scan rate of 100~1200 m/z. PCs were determined according to their retention times, UV/VIS spectra, and high-resolution MS spectra, in addition to a comparison with the standards. […] Putative annotations were made using spectral features and literature information on the chromatographic properties and mass spectra records from the metabolome database. A standard curve was drawn using methanol solutions with different concentrations as the standards. The limits of detection and quantitation were calculated according to the signal-to-noise ratio (limit of detection: signal-to-noise ratio ≥ 3; limit of quantitation: signal-to-noise ratio ≥ 10). […] PCs All of the samples were determined in triplicate.

Caco-2 cell monolayer = test: Caco-2 transepithelial transport assay of digested red wine; assay type: in vitro ADME, human
Description: Caco-2 cells were inoculated following the method of Hubatsch et al. […] Briefly, a 5% v/v of CO2 incubator at 37 °C was used to house the cells. […] Caco-2 cells were sub-cultured when they reached 80-90% of the adherent growth by treating them with a 0.05% v/v of trypsin-EDTA solution. The culture between passages 35 and 40 was used for the following experiment. Transport experiments were performed according to the method of Wu et al. with slight modifications. First, 1.0 × 10^5 Caco-2 cells were inoculated onto 12 mm transparent cell culture plates (Transwell). Media were carefully injected into the apical (0.5 mL) and basolateral (1.5 mL) sides of the Transwell plates. The cell culture medium had to be replaced every other day until the cells formed a monolayer. The integrity and transport ability of the Caco-2 cell monolayer were evaluated by measuring the trans-epithelial electrical resistance (TEER) with a MilliCell voltammeter (Millicell ERS-2, Merck Millipore, Billerica, MA, USA). […] When the cell activity exceeded 0.9, a transport experiment was conducted. The apical side was injected with a digested red wine sample (0.5 mL) and was thoroughly mixed with […] Balanced Salt Solution (HBSS) buffer solution. […] The cells were then cultured in a 37 °C, 5% CO2 incubator. Then, 0.25 mL samples were separately taken from the basolateral side of the monolayer. An equal volume of HBSS buffer was then added every half hour from the beginning of the culture until the end of the culture at 6 h. The collected samples were subsequently filtered and placed in the sample bottle for further HPLC analysis. This experiment was repeated several times to collect enough samples for the next antioxidant test. […] The Agilent 1100 series HPLC instrument was used; it was equipped with a degasser, quaternary pump solvent delivery, a DAD system, and a single quadrupole mass detector coupled with an electrospray ionization LC-MS interface. […] The column temperature was kept at 30 °C, the injection volume was 10 μL, and the flow rate was 0.3 mL/min. The eluents were water and formic acid in a 99:1 (v/v) (A) ratio and 100% acetonitrile (B). The gradient elution procedure was as follows: (1) 3% B solvent at 0 min, (2) 3 to 16% B solvent at 10 min, (3) 16 to 20% B solvent at 30 min, and (4) 20% B solvent maintained until the procedure was completed. The MS configuration was as follows: ESI, negative ion mode, nebulizer pressure of 30 psi, a dry gas flow rate of 10 mL/min, dry gas temperature of 350 °C, and a scan rate of 100~1200 m/z. PCs were determined according to their retention times, UV/VIS spectra, and high-resolution MS spectra, in addition to a comparison with the standards. […] If a standard was unavailable, a structurally related compound was used. Putative annotations were made using spectral features and literature information on the chromatographic properties and mass spectra records from the metabolome database. A standard curve was drawn using methanol solutions with different concentrations as the standards. […] PCs All of the samples were determined in triplicate.

[2] = Cabernet red wine, after simulated gastrointestinal digestion
[3] = Helanshan red wine, after simulated gastrointestinal digestion
[4] = Tianzhu red wine, after simulated gastrointestinal digestion
[5] = Cabernet red wine, digested sample, basolateral side of Caco-2 monolayer
[6] = Helanshan red wine, digested sample, basolateral side of Caco-2 monolayer
[7] = Tianzhu red wine, digested sample, basolateral side of Caco-2 monolayer
[8] = apical to basolateral, digested Cabernet red wine
[9] = apical to basolateral, digested Helanshan red wine
[10] = apical to basolateral, digested Tianzhu red wine

| Molecule | PC Contents, Cabernet, After Digestion [1] | PC Contents, Helanshan, After Digestion [1] | Apparent Permeability Coefficients, Cabernet (Caco-2 cell monolayer; Caco-2) | Apparent Permeability Coefficients, Helanshan (Caco-2 cell monolayer; Caco-2) | Apparent Permeability Coefficients, Tianzhu (Caco-2 cell monolayer; Caco-2) | PC Contents, Cabernet, Transmembrane (Caco-2 cell monolayer; Caco-2) | PC Contents, Helanshan, Transmembrane (Caco-2 cell monolayer; Caco-2) | PC Contents, Tianzhu, Transmembrane (Caco-2 cell monolayer; Caco-2) | PC Contents, Tianzhu, After Digestion [1] | PC Contents, Cabernet, After Digestion [1, 2] | Increase in content after digestion ([1]; Helanshan red wine) [%] | PC Contents, Helanshan, After Digestion [1, 3] | Increase in content after digestion ([1]; Tianzhu red wine) [%] | PC Contents, Tianzhu, After Digestion [1, 4] | PC Contents, Cabernet, Transmembrane (Caco-2 cell monolayer; [5]) | PC Contents, Helanshan, Transmembrane (Caco-2 cell monolayer; [6]) | PC Contents, Tianzhu, Transmembrane (Caco-2 cell monolayer; [7]) | Apparent Permeability Coefficients, Cabernet (Caco-2 cell monolayer; [8]) | Apparent Permeability Coefficients, Helanshan (Caco-2 cell monolayer; [9]) | Apparent Permeability Coefficients, Tianzhu (Caco-2 cell monolayer; [10]) |
| --- | --- | --- | --- | --- | --- | --- | --- | --- | --- | --- | --- | --- | --- | --- | --- | --- | --- | --- | --- | --- |
| O=C(/C=C/c1ccc(O)cc1)O[C@@H](C(=O)O)[C@@H](O)C(=O)O [Coutaric acid] | 1.96 ± 0.08 ^b mg/L | 2.97 ± 0.15 ^b mg/L | 12.13 ± 1.19 ^a ×10^−6 cm/s | 12.91 ± 1.32 ^a ×10^−6 cm/s | 12.46 ± 1.42 ^a ×10^−6 cm/s | 0.38 ± 0.02 ^a mg/L | 0.61 ± 0.03 ^a mg/L | 0.64 ± 0.03 ^a mg/L |  |  |  |  |  |  |  |  |  |  |  |  |
| COc1cc(-c2oc3cc(O)cc(O)c3c(=O)c2O[C@@H]2O[C@H](CO)[C@@H](O)[C@H](O)[C@H]2O)cc(OC)c1O [Syringetin-3-glc] | 26.34 ± 0.90 ^b mg/L | 20.17 ± 1.01 ^b mg/L | 2.91 ± 0.21 ^a ×10^−6 cm/s | 2.81 ± 0.29 ^a ×10^−6 cm/s | 2.88 ± 0.23 ^a ×10^−6 cm/s | 1.23 ± 0.04 ^a mg/L | 0.91 ± 0.03 ^a mg/L | 6.01 ± 0.22 ^a mg/L | 30.19 ± 1.03 ^b mg/L |  |  |  |  |  |  |  |  |  |  |  |
| OC[C@H]1O[C@@H](Oc2cc3c(O)cc(O)cc3[o+]c2-c2cc(O)c(O)c(O)c2)[C@H](O)[C@@H](O)[C@@H]1O [Delphinidin-3-glc, delphinidin-3-glucoside] |  |  |  |  |  |  |  |  |  | 2.96 ± 0.09 ^b mg/L | 28.3 | 2.63 ± 0.10 ^c mg/L | 20.6 | 2.87 ± 0.11 ^c mg/L | 0.59 ± 0.02 ^a mg/L | 0.53 ± 0.02 ^a mg/L | 0.57 ± 0.02 ^a mg/L | 12.38 ± 2.37 ^a ×10^−6 cm/s | 12.59 ± 2.64 ^a ×10^−6 cm/s | 12.45 ± 2.11 ^a ×10^−6 cm/s |
| COc1cc(-c2oc3cc(O)cc(O)c3c(=O)c2O[C@@H]2O[C@H](CO)[C@@H](O)[C@H](O)[C@H]2O)ccc1O [Isorhamnetin-3-glc] |  |  |  |  |  |  |  |  |  | 10.82 ± 0.32 ^b mg/L |  | 9.87 ± 0.47 ^b mg/L |  | 9.88 ± 0.35 ^b mg/L | 0.74 ± 0.03 ^a mg/L | 0.69 ± 0.03 ^a mg/L | 1.97 ± 0.07 ^a mg/L | 4.29 ± 0.33 ^a ×10^−6 cm/s | 4.39 ± 0.31 ^a ×10^−6 cm/s | 4.35 ± 0.34 ^a ×10^−6 cm/s |
| COc1cc(/C=C/C(=O)OC(C(=O)O)C(O)C(=O)O)ccc1O (stereo not drawn) [Fertaric acid] | 3.11 ± 0.12 ^b mg/L | 1.81 ± 0.10 ^c mg/L | 28.2 ± 4.11 ^a ×10^−6 cm/s | 27.9 ± 3.64 ^a ×10^−6 cm/s | 27.6 ± 3.89 ^a ×10^−6 cm/s | 1.40 ± 0.07 ^a mg/L | 0.81 ± 0.04 ^a mg/L | 0.82 ± 0.03 ^a mg/L | 4.11 ± 0.18 ^c mg/L |  |  |  |  |  |  |  |  |  |  |  |
| O=c1c(O[C@@H]2O[C@H](CO)[C@@H](O)[C@H](O)[C@H]2O)c(-c2ccc(O)c(O)c2)oc2cc(O)cc(O)c12 [Quercetin-3-glc] |  |  |  |  |  |  |  |  |  | 202.22 ± 10.52 ^b mg/L |  | 145.43 ± 5.38 ^b mg/L |  | 188.45 ± 8.29 ^b mg/L | 7.47 ± 0.23 ^a mg/L | 5.10 ± 0.28 ^a mg/L | 37.54 ± 1.95 ^a mg/L | 2.31 ± 0.27 ^a ×10^−6 cm/s | 2.19 ± 0.26 ^a ×10^−6 cm/s | 2.23 ± 0.22 ^a ×10^−6 cm/s |
| O.Oc1cc(O)c2c(c1)O[C@H](c1ccc(O)c(O)c1)[C@@H](O)C2 [Catechin] | 25.4 ± 0.86 ^b mg/L | 15.42 ± 0.83 ^b mg/L | 7.77 ± 1.14 ^a ×10^−6 cm/s | 7.69 ± 1.23 ^a ×10^−6 cm/s | 7.83 ± 1.17 ^a ×10^−6 cm/s |  |  |  | 16.7 ± 0.75 ^b mg/L |  |  |  |  |  |  |  |  |  |  |  |
| COc1cc(-c2[o+]c3cc(O)cc(O)c3cc2O[C@@H]2O[C@H](COC(C)=O)[C@@H](O)[C@H](O)[C@H]2O)cc(OC)c1O [Malvidin-3-acglc] |  |  |  |  |  |  |  |  |  | 39.8 ± 1.51 ^b mg/L |  | 30.5 ± 0.92 ^b mg/L |  | 39.3 ± 1.30 ^b mg/L | 8.02 ± 0.38 ^a mg/L | 6.06 ± 0.25 ^a mg/L | 7.83 ± 0.23 ^a mg/L | 12.59 ± 2.16 ^a ×10^−6 cm/s | 12.42 ± 2.23 ^a ×10^−6 cm/s | 12.37 ± 2.45 ^a ×10^−6 cm/s |
| Procyanidin dimer | 5.64 ± 0.26 ^b mg/L | 5.98 ± 0.27 ^b mg/L | 6.41 ± 1.05 ^a ×10^−6 cm/s | 6.48 ± 0.98 ^a ×10^−6 cm/s | 6.54 ± 0.86 ^a ×10^−6 cm/s | 0.58 ± 0.03 ^a mg/L | 0.62 ± 0.02 ^a mg/L | 1.52 ± 0.08 ^a mg/L | 7.64 ± 0.32 ^b mg/L |  |  |  |  |  |  |  |  |  |  |  |
| COc1cc(-c2[o+]c3cc(O)cc(O)c3cc2O[C@@H]2O[C@H](CO)[C@@H](O)[C@H](O)[C@H]2O)cc(OC)c1O [Malvidin-3-glc, malvidin-3-glucoside] |  |  |  |  |  |  |  |  |  | 153.43 ± 5.83 ^b mg/L |  | 88.2 ± 3.97 ^b mg/L |  | 103.8 ± 5.71 ^b mg/L | 62.38 ± 3.24 ^a mg/L | 35.55 ± 1.46 ^a mg/L | 20.68 ± 1.05 ^a mg/L |  | 25.19 ± 3.99 ^a ×10^−6 cm/s | 25.37 ± 4.11 ^a ×10^−6 cm/s |

Reference: article PMC9562916, “Investigation of the Phenolic Component Bioavailability Using the In Vitro Digestion/Caco-2 Cell Model, as well as the Antioxidant Activity in Chinese Red Wine” (Foods, 2022)
